The text below walks through data of patent US20230104487A1, “11-(4-CHLOROPHENYL)-4-(2,3-DIHYDRO-1H-INDOLE-1-CARBONYL)-3,11-DIMETHYL-5,10,DIOXATRICYCLO[7.4.0.0,2,6,]TRIDECA-1,3,6,8-TETRAEN-13-ONE AND DERIVATIVES AS DESTABILIZER OF CRY1 FOR THE TREATMENT OF CIRCADIAN RHYTHM ASSOCIATED DISEASES AND DISORDERS” (KOC UNIVERSITESI, priority 2019, published 2023).

One experiment addresses T1, CRY1 (Mus musculus, UniProt P97784).
T1 sequence (P97784 1-606): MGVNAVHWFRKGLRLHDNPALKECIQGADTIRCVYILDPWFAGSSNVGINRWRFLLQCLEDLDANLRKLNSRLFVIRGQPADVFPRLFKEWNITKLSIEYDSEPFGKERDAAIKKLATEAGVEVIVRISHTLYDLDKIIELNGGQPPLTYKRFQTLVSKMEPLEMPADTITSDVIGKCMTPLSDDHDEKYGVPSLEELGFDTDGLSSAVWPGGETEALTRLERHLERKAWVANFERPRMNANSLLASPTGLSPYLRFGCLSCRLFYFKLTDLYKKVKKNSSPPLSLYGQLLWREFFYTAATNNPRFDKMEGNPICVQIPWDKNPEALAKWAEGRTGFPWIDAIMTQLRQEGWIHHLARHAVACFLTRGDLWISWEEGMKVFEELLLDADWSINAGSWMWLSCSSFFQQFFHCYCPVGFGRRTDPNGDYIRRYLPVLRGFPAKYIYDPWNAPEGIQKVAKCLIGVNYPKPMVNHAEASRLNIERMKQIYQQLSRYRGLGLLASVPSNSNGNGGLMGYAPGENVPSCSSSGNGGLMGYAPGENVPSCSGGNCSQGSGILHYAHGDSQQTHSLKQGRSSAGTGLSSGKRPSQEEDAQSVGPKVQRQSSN
As to the kind of experiment: Pull-down assay with biotinylated molecule, CRY1-HIS-MYC. The format is binding. Conditions: 50 μM bFORMULA I, 100 μM FORMULA I competitor. On the procedure: 10 μg of Cry1-pcDNA4, Cry2-pcDNA4 or Cry1-T5-pcDNA4 plasmids expressing His and Myc at the C-terminal of CRYs were transfected to HEK293T cell. After 48 h of transfection cells were harvested and lysed in lysis buffer (50 mM Tris pH 7.4, 2 mM EDTA, 1 mM MgCl2, 0.2% NP-40 (v/v), 0.1% sodium deoxycholate (w/v), 1 mM sodium orthovanadate, 1 mM sodium fluoride, and protease inhibitor cocktail (Thermo Scientific)). Lysates were incubated for 10 minutes on ice then mixed gently and incubated for another 10 minutes on ice. Then lysate was centrifuged for 10 minutes at 7000 g at 4° C. 5% of the supernatant was kept for input analysis. Remaining supernatant was divided to three and mixed with 2×binding buffer (100 mM Tris-HCl pH 7.4, 300 mM NaCl, 0.2% NP-40 (v/v), 2 mM sodium orthovanadate, 2 mM sodium fluoride, and protease inhibitor) with 1:1 ratio, incubated with rotation having either of these: a) DMSO, b) biotinylated molecule, c) biotinylated molecule and the competitor for 2 h. During this period NeutrAvidin Agarose resin (Thermo Scientific) was equilibrated with lysis buffer by mixing for 5 minutes via rotation at 4° C. three times. After each mix period, resins were centrifuged at 2500 g at 4° C. for 2 minutes and supernatant was discarded. […] Pulled-down samples were analyzed via western blot.

The subject of experiment [1] is Ras transformed p53-null MEF cell line. Nature of the experiment: Apoptosis assay (PARP cleavage) with oxaliplatin. The format is cell-based, mouse. Conditions: 0, 10 or 20 μM oxaliplatin followed by FORMULA I. On the procedure: FIGS. 6A-6B are an illustration of FORMULA I enhanced the effect of oxalipilatin in p53 null MSF cells. Ras pT24 transformed p53 null MSF fibroblast cells were treated with 0, 10 or 20 μM oxaliplatin and incubated for 24 h. Then either DMSO or FORMULA I was added and incubated for 16 h. Cells were lysed and analyzed via protein immunoblot technique. […] Bar graph was drawn normalizing to 10 μM dosage of oxaliplatin (Data represent the mean±SEM, n=4 **: p<0.005, * p<0.05 versus DMSO control by two-way ANOVA).
In previous studies it was reported that […] mutation sensitizes the Ras transformed p53-null cells, but not cells with wild-type p53, to apoptosis induced by UV or UV mimetic agents e.g oxaliplatin. Using fibroblasts isolated from the skin of Cry1^−/−Cry2^−/−p53^−/− and p53^−/− mice, it has been shown that Cry deletion on the p53-null background sensitized the cells to bulky-DNA adduct-induced apoptosis (Lee and Sancar, 2011). With the expectation that FORMULA I would destabilize CRY1 and increase the effectiveness of UV mimetic chemotherapeutic agents, we performed apoptosis assay with Ras transformed p53-null MEF cell lines. In this assay, cells were treated by increasing dose of oxaliplatin for 16 h followed by FORMULA I treatment for 24 h and probed for apoptosis by measuring PARP cleavage. […]

Structures are written as SMILES. “Also recorded” adds a separate entry of the source.

Consider `Cc1c(C(=O)N2CCc3ccccc32)oc2ccc3c(c12)C(=O)CC(C)(c1ccc(Cl)cc1)O3` (centres unmarked) [FORMULA I, 11-(4-chlorophenyl)-4-(2,3-dihydro-1H-indole-1-carbonyl)-3,11-dimethyl-5,10,dioxatricyclo[7.4.0.0,2,6,]trideca-1,3,6,8-tetraen-13-one], for which the “physical binding to CRY1 (pull-down)” value at CRY1 is “physically binds to CRY1; also recorded: binds to PHR of CRY1”. Further, the “oxaliplatin-induced apoptosis (cleaved PARP)” value in experiment [1] is on record as “sensitized Ras transformed p53-null MEF cell line to oxaliplatin-induced apoptosis; also recorded: increases the cleaved PARP protein level”.
